Assays:
Format in all cases: biochemical
adenosine A3 receptor = adenosine A3 receptor (Homo sapiens (Human), UniProt P0DMS8); assay: Adenosine receptor activity assay (Table 1), A3 cAMP
Protocol: Table 1. Compounds (e.g., Adenosine Receptor modulators) and activity assay results. The legend is as follows: A=<10 nM; B=10-50 nM; C=50-100 nM; D=100-500; and E=>500 nM. The ratio corresponds to the A2A activity to the A2B activity; or A2A/A2B.

adenosine A2B receptor = adenosine A2B receptor (Homo sapiens (Human), UniProt P29275); assay: Adenosine receptor activity assay (Table 1), A2B activity; details: for IC50: read-out: Ave A2B cAMP IC50
adenosine A2A receptor = adenosine A2A receptor (Homo sapiens (Human), UniProt P29274); assay: Adenosine receptor activity assay (Table 1), A2A activity; details: read-out: Ave A2A cAMP IC50
[1] = A2A activity to the A2B activity, A2A/A2B

Chain of adenosine A2B receptor (P29275 whole entry): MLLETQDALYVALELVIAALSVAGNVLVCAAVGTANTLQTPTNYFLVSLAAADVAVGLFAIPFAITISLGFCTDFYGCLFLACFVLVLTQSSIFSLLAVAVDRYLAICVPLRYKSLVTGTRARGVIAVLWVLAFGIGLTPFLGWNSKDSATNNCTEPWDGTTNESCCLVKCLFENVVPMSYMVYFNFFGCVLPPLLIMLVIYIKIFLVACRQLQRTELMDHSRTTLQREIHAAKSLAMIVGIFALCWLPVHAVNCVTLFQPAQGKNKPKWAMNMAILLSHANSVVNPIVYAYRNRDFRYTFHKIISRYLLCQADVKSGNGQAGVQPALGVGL
Chain of adenosine A2A receptor (P29274 whole entry): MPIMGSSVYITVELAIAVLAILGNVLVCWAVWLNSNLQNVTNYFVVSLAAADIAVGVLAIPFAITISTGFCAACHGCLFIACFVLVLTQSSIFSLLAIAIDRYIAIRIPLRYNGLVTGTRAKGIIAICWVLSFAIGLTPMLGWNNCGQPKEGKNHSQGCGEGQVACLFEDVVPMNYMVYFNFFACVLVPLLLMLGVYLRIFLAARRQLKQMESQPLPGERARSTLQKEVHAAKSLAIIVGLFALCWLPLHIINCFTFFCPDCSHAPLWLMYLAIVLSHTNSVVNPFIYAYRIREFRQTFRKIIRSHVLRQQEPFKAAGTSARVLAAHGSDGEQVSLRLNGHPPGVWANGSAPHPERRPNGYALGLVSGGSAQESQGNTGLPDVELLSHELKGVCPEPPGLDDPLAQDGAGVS
Chain of adenosine A3 receptor (P0DMS8 whole entry): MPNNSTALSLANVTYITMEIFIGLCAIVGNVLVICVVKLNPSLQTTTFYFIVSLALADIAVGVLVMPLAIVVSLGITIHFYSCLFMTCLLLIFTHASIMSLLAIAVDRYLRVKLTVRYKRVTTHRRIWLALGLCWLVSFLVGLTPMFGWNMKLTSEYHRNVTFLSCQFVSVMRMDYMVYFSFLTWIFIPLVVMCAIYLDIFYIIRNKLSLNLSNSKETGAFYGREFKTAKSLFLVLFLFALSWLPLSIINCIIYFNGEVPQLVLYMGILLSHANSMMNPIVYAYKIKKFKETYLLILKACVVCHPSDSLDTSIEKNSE

Compound	IC50 (adenosine A3 receptor)	IC50 (adenosine A2B receptor)	Ratio (adenosine A2B receptor; [1])	IC50 (adenosine A2A receptor)	Ratio (adenosine A2B receptor; A2A activity to A2B activity (A2A/A2B))
C[C@H](Nc1nc(C(=O)NCCNC(=O)C(C)(C)C)c2sccc2n1)c1cncc(F)c1 [Example Z537, (S)-2-((1-(5-Fluoropyridin-3-yl)ethyl)amino)-N-(2-pivalamidoethyl)thieno[3,2-d]pyrimidine-4-carboxamide]		100 to 500 nM	0.87	100 to 500 nM	
C[C@H](Nc1nc(C(=O)NC2CN(C(=O)C(C)(C)C)C2)c2sccc2n1)c1cncc(F)c1 [Example Z545, (S)-2-((1-(5-Fluoropyridin-3-yl)ethyl)amino)-N-(1-pivaloylazetidin-3-yl)thieno[3,2-d]pyrimidine-4-carboxamide]		100 to 500 nM		100 to 500 nM	
C[C@H](Nc1nc(C(=O)N2CC(C(=O)NCCO)C2)c2sccc2n1)c1cncc(F)c1 [Example Z547, (S)-1-(2-((1-(5-Fluoropyridin-3-yl)ethyl)amino)thieno[3,2-d]pyrimidine-4-carbonyl)-N-(2-hydroxyethyl)azetidine-3-carboxamide]		50 to 100 nM	43.40	> 500 nM	
COc1ccc([C@H](C)Nc2nc(C(=O)N3CC(NC(=O)OC(C)C)C3)c3sc(C)cc3n2)cc1 [Example Z555, Isopropyl (S)-(1-(2-((1-(4-methoxyphenyl)ethyl)amino)-6-methylthieno[3,2-d]pyrimidine-4-carbonyl)azetidin-3-yl)carbamate]		100 to 500 nM	0.18	50 to 100 nM	
COc1ccc([C@H](C)Nc2nc(C(=O)N3CC(NC(C)=O)C3)c3sc(C)cc3n2)cc1 [Example Z556, (S)—N-(1-(2-((1-(4-Methoxyphenyl)ethyl)amino)-6-methylthieno[3,2-d]pyrimidine-4-carbonyl)azetidin-3-yl)acetamide]		100 to 500 nM	0.22	50 to 100 nM	
CC(C)C(=O)N1CCN(C(=O)c2nc(N[C@@H](C)c3cncc(F)c3)nc3ccsc23)C1 [Example Z564, (S)-1-(3-(2-((1-(5-Fluoropyridin-3-yl)ethyl)amino)thieno[3,2-d]pyrimidine-4-carbonyl)imidazolidin-1-yl)-2-methylpropan-1-one]		100 to 500 nM	18.15	> 500 nM	
C[C@H](Nc1nc(C(=O)N2CCN(C(=O)C(C)(C)C)C2)c2sccc2n1)c1cncc(F)c1 [Example Z565, (S)-1-(3-(2-((1-(5-Fluoropyridin-3-yl)ethyl)amino)thieno[3,2-d]pyrimidine-4-carbonyl)imidazolidin-1-yl)-2,2-dimethylpropan-1-one]		> 500 nM	6.39	> 500 nM	
C[C@H](Nc1nc(C(=O)N2CCN(C(=O)OCC(C)(C)C)C2)c2sccc2n1)c1cncc(F)c1 [Example Z566, Neopentyl (S)-3-(2-((1-(5-fluoropyridin-3-yl)ethyl)amino)thieno[3,2-d]pyrimidine-4-carbonyl)imidazolidine-1-carboxylate]		> 500 nM	3.10	> 500 nM	
COC[C@@H]1CCN1C(=O)c1nc(N[C@@H](C)c2cncc(F)c2)nc2ccsc12 [Example Z567, (2-(((S)-1-(5-Fluoropyridin-3-yl)ethyl)amino)thieno[3,2-d]pyrimidin-4-yl)((S)-2-(methoxymethyl)azetidin-1-yl)methanone]		100 to 500 nM	8.82	> 500 nM	
COC[C@H]1CCN1C(=O)c1nc(N[C@@H](C)c2cncc(F)c2)nc2ccsc12 [Example Z568, (2-(((S)-1-(5-Fluoropyridin-3-yl)ethyl)amino)thieno[3,2-d]pyrimidin-4-yl)((R)-2-(methoxymethyl)azetidin-1-yl)methanone]		50 to 100 nM	12.84	> 500 nM	
COC[C@@H]1CCN1C(=O)c1nc(N[C@@H](C)c2cncc(F)c2)nc2cc(C)sc12 [Example Z569, (2-(((S)-1-(5-Fluoropyridin-3-yl)ethyl)amino)-6-methylthieno[3,2-d]pyrimidin-4-yl)((S)-2-(methoxymethyl)azetidin-1-yl)methanone]		100 to 500 nM	40.75	> 500 nM	
C[C@H](Nc1nc(C(=O)N2CCN(C(=O)OC(C)(C)C)C2)c2sccc2n1)c1cncc(F)c1 [Example Z584, tert-Butyl (S)-3-(2-((1-(5-fluoropyridin-3-yl)ethyl)amino)thieno[3,2-d]pyrimidine-4-carbonyl)imidazolidine-1-carboxylate]		100 to 500 nM	2.34	> 500 nM	
CC(C)NC(=O)N1CCN(C(=O)c2nc(N[C@@H](C)c3cncc(F)c3)nc3ccsc23)C1 [Example Z587, (S)-3-(2-((1-(5-Fluoropyridin-3-yl)ethyl)amino)thieno[3,2-d]pyrimidine-4-carbonyl)-N-isopropylimidazolidine-1-carboxamide]		50 to 100 nM	1.63	100 to 500 nM	
C[C@H](Nc1nc(C(=O)N2CCN(C(=O)N(C)C)C2)c2sccc2n1)c1cncc(F)c1 [Example Z590, (S)-3-(2-((1-(5-Fluoropyridin-3-yl)ethyl)amino)thieno[3,2-d]pyrimidine-4-carbonyl)-N,N-dimethylimidazolidine-1-carboxamide]		10 to 50 nM	11.22	100 to 500 nM	
(6-Amino-2-(((S)-1-(pyridin-2-yl)ethyl)amino)thieno[3,2-d]pyrimidin-4-yl)((R)-3-fluoropyrrolidin-1-yl)methanone [Example Z174]		10 to 50 nM		100 to 500 nM	15.05
Azetidin-1-yl(2-(((6-methoxypyridin-3-yl)methyl)amino)thieno[3,2-d]pyrimidin-4-yl)methanone [Example Z433]		> 500 nM	0.22	100 to 500 nM	

Continued, values first:

IC50 (adenosine A3 receptor)	IC50 (adenosine A2B receptor)	Ratio (adenosine A2B receptor; [1])	IC50 (adenosine A2A receptor)	Ratio (adenosine A2B receptor; A2A activity to A2B activity (A2A/A2B))	Compound
50 to 100 nM	10 to 50 nM				CC(=O)Nc1ccc(CCNC(=O)c2nc(N[C@@H](C)c3cccnc3)nc3cc(C)sc23)cc1 [Example Z497, (S)—N-(4-Acetamidophenethyl)-6-methyl-2-((1-(pyridin-3-yl)ethyl)amino)thieno[3,2-d]pyrimidine-4-carboxamide]
	10 to 50 nM	12.33	> 500 nM		C[C@H](Nc1nc(C(=O)NCCNS(C)(=O)=O)c2sccc2n1)c1cncc(F)c1 [Example Z538, (S)-2-((1-(5-Fluoropyridin-3-yl)ethyl)amino)-N-(2-(methylsulfonamido)ethyl)thieno[3,2-d]pyrimidine-4-carboxamide]
	10 to 50 nM		100 to 500 nM		CC(=O)N1CC(CCNC(=O)c2nc(N[C@@H](C)c3cncc(F)c3)nc3ccsc23)C1 [Example Z539, (S)—N-(2-(1-Acetylazetidin-3-yl)ethyl)-2-((1-(5-fluoropyridin-3-yl)ethyl)amino)thieno[3,2-d]pyrimidine-4-carboxamide]
	10 to 50 nM		100 to 500 nM		C[C@H](Nc1nc(C(=O)N2CCC(C(=O)NC(C)(C)C)C2)c2sccc2n1)c1cncc(F)c1 (stereo partly drawn) [Example Z548, N-(tert-Butyl)-1-(2-(((S)-1-(5-fluoropyridin-3-yl)ethyl)amino)thieno[3,2-d]pyrimidine-4-carbonyl)pyrrolidine-3-carboxamide]
	10 to 50 nM	4.79	50 to 100 nM		C[C@H](Nc1nc(C(=O)N2CC(CN(C)C(=O)CC(C)(C)C)C2)c2sccc2n1)c1cncc(F)c1 [Example Z550, (S)—N-((1-(2-((1-(5-Fluoropyridin-3-yl)ethyl)amino)thieno[3,2-d]pyrimidine-4-carbonyl)azetidin-3-yl)methyl)-N,3,3-trimethylbutanamide]
	10 to 50 nM	16.87	> 500 nM		C[C@H](Nc1nc(C(=O)N2CC(C(N)=O)C2)c2sccc2n1)c1cncc(F)c1 [Example Z563, (S)-1-(2-((1-(5-Fluoropyridin-3-yl)ethyl)amino)thieno[3,2-d]pyrimidine-4-carbonyl)azetidine-3-carboxamide]
	10 to 50 nM	84.36	> 500 nM		COC[C@H]1CCN1C(=O)c1nc(N[C@@H](C)c2cncc(F)c2)nc2cc(C)sc12 [Example Z570, (2-(((S)-1-(5-Fluoropyridin-3-yl)ethyl)amino)-6-methylthieno[3,2-d]pyrimidin-4-yl)((R)-2-(methoxymethyl)azetidin-1-yl)methanone]
	10 to 50 nM	2.90	100 to 500 nM		C[C@H](Nc1nc(C(=O)N2CC(C(=O)OC(C)(C)C)C2)c2sccc2n1)c1cncc(F)c1 [Example Z572, tert-Butyl (S)-1-(2-((1-(5-fluoropyridin-3-yl)ethyl)amino)thieno[3,2-d]pyrimidine-4-carbonyl)azetidine-3-carboxylate]
	10 to 50 nM	58.55	> 500 nM		CCNC1CN(C(=O)c2nc(N[C@@H](C)c3cncc(F)c3)nc3cc(C)sc23)C1 [Example Z574, (S)-(3-(Ethylamino)azetidin-1-yl)(2-((1-(5-fluoropyridin-3-yl)ethyl)amino)-6-methylthieno[3,2-d]pyrimidin-4-yl)methanone]
	10 to 50 nM	17.96	> 500 nM		COCCC(=O)N1CCN(C(=O)c2nc(N[C@@H](C)c3cncc(F)c3)nc3ccsc23)C1 [Example Z589, (S)-1-(3-(2-((1-(5-Fluoropyridin-3-yl)ethyl)amino)thieno[3,2-d]pyrimidine-4-carbonyl)imidazolidin-1-yl)-3-methoxypropan-1-one]

Reference: patent US11254686B1 (Corvus Pharmaceuticals, Inc., priority 2017, dated 2022)
